The record followed here is US11845084B2, “Microchip high density hanging drop three-dimension culture platform” (The Board of Trustees of the University of Illinois, priority 2020, dated 2023).

In experiment [1] the test system is LN229 microcancer spheroids. Kind of experiment: On-chip drug testing of LN229 microcancer spheroids in microchip hanging drop 3D culture. The format is cell-based. The note with it: Homo sapiens, LN-229; measured on day 9 post cell seeding; drug loaded on day 3; 500 cells/well; 12 wells per concentration, 10 uM to 100 pM. The source says:
In contrast, conventional hanging drop methods used to extract the formed tumor spheroids and then performing an end-point only analysis in a separate well plate. Dasatinib was selected for drug testing, and introduced after 3 days of culture in the chip. […] One process for introducing the drugs on chip is as follows. The chip was kept upright inside mineral oil and centrifuged briefly to bring down the spheroids. Next, appropriate volume of media with drugs is loaded on chip through oil and incubated for 30 minutes to reach a homogeneous concentration. […] The chip was partitioned as before by using oil, inverted, and daily measurements of green and red fluorescence were taken. […]
The total number of cells were extracted from the off-chip culture into a 1.7 mL tube and then centrifuged at 200 g for 5 min so that all cells settle to the bottom of the tube. […] To stop the PKH 26 Red Fluorescence staining, media with FBS was added to the cell and dye solution. […]
Spheroid Imaging: Real time imaging was done daily after seeding with an upright Olympus BX63 fluorescence microscope with a 10× objective (0.3 NA). […] Tiles and Z-stacks of 10 um slice thickness of the area with spheroids or shapes were taken of chips in bright-field, GFP and RFP fluorescence wavelengths. The CellTox green fluorescence dye was captured using the GFP fluorescence and the PKH Red dye was captured using the RFP. […]

The subject of experiment [2] is PDX microcancers (GBM8 patient-derived xenograft glioblastoma cells). Put plainly: On-chip drug testing of PDX microcancer spheroids in microchip hanging drop 3D culture. The note with it: Homo sapiens; measured on day 9 post cell seeding; drug loaded on day 3; 500 cells/well; 12 wells per concentration, 10 uM to 100 pM. The class given is cell-based.
Experimental: The harvest cells from the xenograft represented the cellular diversity of the PDX brain tumor.
Dasatinib was selected for drug testing, and introduced after 3 days of culture in the chip. […] One process for introducing the drugs on chip is as follows. The chip was kept upright inside mineral oil and centrifuged briefly to bring down the spheroids. Next, appropriate volume of media with drugs is loaded on chip through oil and incubated for 30 minutes to reach a homogeneous concentration. The volume of drugs loaded depends on the number of spheroids being cultured or wells filled with media on chip, which in turn, are defined by the size and numbers of PDMS reservoirs initially used for cell seeding. The volume of media with drugs added is usually 5 times the volume of wells containing spheroids. […] The chip was partitioned as before by using oil, inverted, and daily measurements of green and red fluorescence were taken.

The IC50 is the midpoint of a concentration-inhibition curve. The low end stands for greater potency, the high end for weaker potency. Turning to `Cc1nc(Nc2ncc(C(=O)Nc3c(C)cccc3Cl)s2)cc(N2CCN(CCO)CC2)n1` [Dasatinib], the IC50 in experiment [1] worked out at 95.9 nM; in experiment [2], 13.8 nM.
